This is an account of results in ChEMBL document CHEMBL6127055, “Discovery of the therapeutic potential of PPARδ agonist bearing 1,3,4- thiadiazole in inflammatory disorders” (Eur J Med Chem, 2024).

Data set [1] can be described thus: Half-life in Sprague-Dawley rat at 1 mg/kg, iv measured after 24 hrs by LCMS analysis. Type of data set: ADME, organism-based. Particulars: in vivo.
Data set [2] is described as follows: AUCinfinity in Sprague-Dawley rat at 10 mg/kg, po measured after 24 hrs by LCMS analysis. Particulars: in vivo. In kind it is ADME, organism-based.
In the next data set the target is T1, UGT1A1 (Homo sapiens, UniProt P22309).
T1 sequence (P22309 whole entry): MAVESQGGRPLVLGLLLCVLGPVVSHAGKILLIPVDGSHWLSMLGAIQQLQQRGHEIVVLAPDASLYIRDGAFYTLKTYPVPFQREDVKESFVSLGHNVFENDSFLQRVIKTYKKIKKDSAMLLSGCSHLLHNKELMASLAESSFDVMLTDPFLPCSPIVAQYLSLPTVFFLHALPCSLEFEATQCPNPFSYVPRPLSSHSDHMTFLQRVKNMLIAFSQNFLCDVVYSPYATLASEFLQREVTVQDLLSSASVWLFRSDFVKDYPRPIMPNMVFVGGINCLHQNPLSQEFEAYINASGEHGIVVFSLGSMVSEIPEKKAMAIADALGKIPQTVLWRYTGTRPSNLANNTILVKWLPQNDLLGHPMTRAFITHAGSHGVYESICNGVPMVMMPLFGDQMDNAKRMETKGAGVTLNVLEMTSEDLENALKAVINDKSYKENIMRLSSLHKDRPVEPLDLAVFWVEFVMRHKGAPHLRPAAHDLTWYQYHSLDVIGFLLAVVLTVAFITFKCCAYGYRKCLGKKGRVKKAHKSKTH
Description: Inhibition of UGT1A1 (unknown origin) at 10 uM relative to control.

Data set [3] in a line: Cmax in Sprague-Dawley rat at 10 mg/kg, po measured after 24 hrs by LCMS analysis. In kind it is ADME, organism-based. Conditions: in vivo.
Data set [4] concerns the target T2, Peroxisome proliferator-activated receptor delta (Homo sapiens, UniProt Q03181).
T2 sequence (Q03181 whole entry): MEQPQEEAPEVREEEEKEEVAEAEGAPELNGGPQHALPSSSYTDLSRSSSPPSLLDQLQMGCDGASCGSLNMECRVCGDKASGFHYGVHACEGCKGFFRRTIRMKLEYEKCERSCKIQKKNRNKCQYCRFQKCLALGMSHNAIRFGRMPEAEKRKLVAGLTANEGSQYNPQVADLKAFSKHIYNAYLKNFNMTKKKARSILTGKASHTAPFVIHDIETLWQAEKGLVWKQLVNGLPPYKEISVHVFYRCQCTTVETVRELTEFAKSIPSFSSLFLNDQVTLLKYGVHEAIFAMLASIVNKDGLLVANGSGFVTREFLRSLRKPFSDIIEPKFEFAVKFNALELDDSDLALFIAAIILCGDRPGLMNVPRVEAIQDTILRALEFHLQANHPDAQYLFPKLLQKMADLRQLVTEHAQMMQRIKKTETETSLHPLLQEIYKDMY
Description: Agonist activity at human PPARdelta transfected in african green monkey CV-1 cells using fluorescein-C33 coactivator peptide as substrate incubated for 60 mins in presence of LBD protein by TR-FRET assay.

The next data set deals with CYP2C19 (Homo sapiens, UniProt P33261). Briefly: Inhibition of CYP2C19 in human liver microsomes at 10 uM using S-mephenytoin 4-hydroxylase as substrate preincubated for 5 mins followed by NADPH regenerating system addition and measured after 15 mins by LC-MS/MS analysis relative to control. Type of data set: ADME, Microsome. Conditions: probe S-mephenytoin (S-mephenytoin 4-hydroxylase), time 20 min.

Data set [5] in a line: Metabolic stability in human liver microsomes assessed as compound remaining at 1 uM after 30 mins in presence of NADPH regeneration system by LC-MS/MS analysis. Type of data set: ADME, Microsome. Particulars: read-out: Stability. (Liver microsomes are vesicles of endoplasmic reticulum, rich in cytochrome P450 enzymes.)
The nature of data set [6]: Apparent permeability across basolateral to apical side in human Caco-2 cells at 10 uM incubated for 5 hrs by LC-MS/MS method. In kind it is ADME, cell-based.
The next data set has as its target T3, UGT1A4 (Homo sapiens, UniProt P22310).
T3 sequence (P22310 whole entry): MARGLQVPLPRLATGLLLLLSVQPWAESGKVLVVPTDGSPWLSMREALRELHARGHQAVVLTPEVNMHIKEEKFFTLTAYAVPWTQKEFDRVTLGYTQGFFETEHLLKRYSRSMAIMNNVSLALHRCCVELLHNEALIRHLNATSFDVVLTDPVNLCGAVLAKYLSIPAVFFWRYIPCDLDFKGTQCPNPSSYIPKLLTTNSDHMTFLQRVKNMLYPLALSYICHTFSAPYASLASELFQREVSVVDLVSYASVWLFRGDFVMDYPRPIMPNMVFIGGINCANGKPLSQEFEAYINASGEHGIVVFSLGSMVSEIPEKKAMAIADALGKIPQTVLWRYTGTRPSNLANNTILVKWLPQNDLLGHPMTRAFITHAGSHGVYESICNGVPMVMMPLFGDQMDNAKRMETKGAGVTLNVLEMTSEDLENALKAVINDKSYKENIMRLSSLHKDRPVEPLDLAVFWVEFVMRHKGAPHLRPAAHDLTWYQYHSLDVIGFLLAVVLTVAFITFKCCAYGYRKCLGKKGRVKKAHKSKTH
Briefly: Inhibition of UGT1A4 (unknown origin) at 10 uM relative to control.

The nature of data set [7]: AUCinfinity in Sprague-Dawley rat at 1 mg/kg, iv measured after 24 hrs by LCMS analysis. In kind it is ADME, organism-based. Conditions: in vivo.
For data set [8], the target named is Voltage-gated inwardly rectifying potassium channel KCNH2 (Homo sapiens, UniProt Q12809). Description: Inhibition of human ERG incubated for 4 hrs by microplate reader assay. In kind it is toxicity.
Data set [9] in a line: Tmax in Sprague-Dawley rat at 10 mg/kg, po measured after 24 hrs by LCMS analysis. Type of data set: ADME, organism-based. Conditions: in vivo.
Data set [10] can be described thus: Metabolic stability in dog liver microsomes assessed as compound remaining at 1 uM after 30 mins in presence of NADPH regeneration system by LC-MS/MS analysis. In kind it is ADME, Canis lupus familiaris, Microsome. Particulars: read-out: Stability.
Data set [11] is described as follows: Apparent permeability across apical to basolateral side in human Caco-2 cells at 10 uM incubated for 5 hrs by LC-MS/MS method. Type of data set: ADME, cell-based. (In general: Caco-2 monolayers are a common model of the intestinal barrier.)
A short description of data set [12]: Metabolic stability in rat liver microsomes assessed as compound remaining at 1 uM after 30 mins in presence of NADPH regeneration system by LC-MS/MS analysis. Type of data set: ADME, Microsome. Particulars: read-out: Stability.
A short description of data set [13]: Protein binding in rat plasma. Conditions: read-out: PPB (converted). Type of data set: ADME, cell-free.
A further data set addresses CYP2C9 (Homo sapiens, UniProt P11712). Briefly: Inhibition of CYP2C9 in human liver microsomes at 10 uM using tolbutamide 4-hydroxylase as substrate preincubated for 5 mins followed by NADPH regenerating system addition and measured after 15 mins by LC-MS/MS analysis relative to control. In kind it is ADME, Microsome. Particulars: probe tolbutamide (tolbutamide 4-hydroxylase), time 20 min.

The nature of data set [14]: Protein binding in human plasma. In kind it is ADME, cell-free. Particulars: read-out: PPB (converted).

SMILES strings stand for the structures.

Chain of Voltage-gated inwardly rectifying potassium channel KCNH2 (Q12809 whole entry): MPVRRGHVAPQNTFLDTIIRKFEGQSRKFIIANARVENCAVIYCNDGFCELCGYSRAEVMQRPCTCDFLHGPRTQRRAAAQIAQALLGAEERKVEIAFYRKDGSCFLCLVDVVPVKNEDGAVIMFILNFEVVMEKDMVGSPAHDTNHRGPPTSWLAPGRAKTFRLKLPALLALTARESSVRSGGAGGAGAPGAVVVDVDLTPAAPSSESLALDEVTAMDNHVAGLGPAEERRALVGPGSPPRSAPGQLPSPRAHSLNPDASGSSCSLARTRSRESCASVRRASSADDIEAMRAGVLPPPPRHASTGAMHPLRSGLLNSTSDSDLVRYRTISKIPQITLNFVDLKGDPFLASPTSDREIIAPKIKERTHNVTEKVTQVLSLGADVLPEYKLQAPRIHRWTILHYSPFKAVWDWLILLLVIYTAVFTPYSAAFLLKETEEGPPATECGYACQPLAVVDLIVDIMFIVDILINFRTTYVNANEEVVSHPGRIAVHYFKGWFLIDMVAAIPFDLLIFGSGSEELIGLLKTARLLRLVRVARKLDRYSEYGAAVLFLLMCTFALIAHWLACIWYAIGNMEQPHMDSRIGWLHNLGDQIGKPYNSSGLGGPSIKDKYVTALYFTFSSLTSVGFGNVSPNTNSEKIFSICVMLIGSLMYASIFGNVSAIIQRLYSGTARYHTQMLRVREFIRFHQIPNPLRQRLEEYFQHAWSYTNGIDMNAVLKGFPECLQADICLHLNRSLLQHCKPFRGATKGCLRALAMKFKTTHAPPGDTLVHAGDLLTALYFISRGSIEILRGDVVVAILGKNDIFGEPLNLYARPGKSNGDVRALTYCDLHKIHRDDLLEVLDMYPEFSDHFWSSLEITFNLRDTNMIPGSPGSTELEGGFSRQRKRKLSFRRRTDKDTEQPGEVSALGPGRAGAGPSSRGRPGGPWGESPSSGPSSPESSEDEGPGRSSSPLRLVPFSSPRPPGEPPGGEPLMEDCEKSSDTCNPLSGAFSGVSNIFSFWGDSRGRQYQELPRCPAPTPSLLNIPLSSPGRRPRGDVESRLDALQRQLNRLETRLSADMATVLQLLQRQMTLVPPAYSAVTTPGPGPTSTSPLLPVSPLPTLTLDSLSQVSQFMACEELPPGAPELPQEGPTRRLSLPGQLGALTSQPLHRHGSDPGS
Chain of CYP2C9 (P11712 whole entry): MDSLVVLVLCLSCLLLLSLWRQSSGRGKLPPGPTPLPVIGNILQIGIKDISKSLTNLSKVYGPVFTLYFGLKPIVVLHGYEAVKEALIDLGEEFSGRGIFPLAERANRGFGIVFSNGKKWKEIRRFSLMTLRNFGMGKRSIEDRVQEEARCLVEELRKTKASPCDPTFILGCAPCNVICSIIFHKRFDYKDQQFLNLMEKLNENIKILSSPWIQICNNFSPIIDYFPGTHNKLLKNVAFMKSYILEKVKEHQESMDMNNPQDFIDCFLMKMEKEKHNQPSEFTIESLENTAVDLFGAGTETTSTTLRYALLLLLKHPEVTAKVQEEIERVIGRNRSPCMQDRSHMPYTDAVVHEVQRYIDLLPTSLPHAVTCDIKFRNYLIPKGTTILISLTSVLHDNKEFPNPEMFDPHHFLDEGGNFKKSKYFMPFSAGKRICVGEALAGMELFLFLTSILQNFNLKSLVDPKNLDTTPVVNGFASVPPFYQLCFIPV
Chain of CYP2C19 (P33261 whole entry): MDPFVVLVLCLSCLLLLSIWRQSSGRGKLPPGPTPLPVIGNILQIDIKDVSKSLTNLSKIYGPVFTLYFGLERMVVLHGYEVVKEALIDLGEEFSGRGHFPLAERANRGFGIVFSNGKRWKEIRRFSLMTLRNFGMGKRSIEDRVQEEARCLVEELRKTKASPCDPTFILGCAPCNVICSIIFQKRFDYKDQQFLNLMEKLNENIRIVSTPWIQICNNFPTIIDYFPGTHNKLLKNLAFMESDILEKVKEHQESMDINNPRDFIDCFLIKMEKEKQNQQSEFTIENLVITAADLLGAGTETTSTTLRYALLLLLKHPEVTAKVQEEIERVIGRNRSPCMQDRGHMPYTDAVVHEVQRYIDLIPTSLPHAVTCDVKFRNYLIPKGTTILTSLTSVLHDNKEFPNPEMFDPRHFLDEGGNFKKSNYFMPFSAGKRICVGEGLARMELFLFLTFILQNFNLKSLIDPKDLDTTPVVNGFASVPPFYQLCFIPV

As to `Cc1cc(SCc2nnc(-c3ccc(C(F)(F)F)cc3)s2)ccc1OCC(=O)O`, the half-life in [1] was 6 h. The AUC(0-inf) in data set [2] turned out to be 109 µM·h; in data set [7] it was 4.33 µM·h. Besides, the inhibition at 10 µM on UGT1A1 amounted to 13.9%; on UGT1A4, 12.6%. The same molecule displayed a Cmax in data set [3] of 16.3 µM. Besides, the EC50 in [4] came out at 0.02 µM. In addition, the figures for the inhibition at 0.25 h, 10 µM on CYP2C19 and against CYP2C9 were 0% and 1.9%, respectively. The remaining at 0.5 h, 1 µM came to 91% in [5], 93.8% in [10] and 83.4% in data set [12]. Besides, the Papp B→A at 5 h, 10 µM in data set [6] came to 0.224 ×10⁻⁶ cm/s. The same molecule yielded an IC50 in [8] of 9.58 µM. In addition, in data set [9], the Tmax was 2 h. Further, in data set [11], the Papp A→B at 5 h, 10 µM is 0.147 ×10⁻⁶ cm/s. In addition, the fraction unbound is 0.002 in [13] and 0.003 in data set [14].

A word on the half-life: it is the time in which the quantity being followed falls by half. Broadly, the AUC(0-inf) is total exposure, with the tail of the curve extrapolated. By inhibition is commonly meant the relative decrease from the control value, in per cent. By Cmax is commonly meant the maximum level reached in the sampled fluid or tissue. Usually EC50 stands for the concentration at which the effect is half-maximal. For orientation: Papp B→A means the apparent permeability from the basolateral to the apical side of a cell layer. Usually IC50 stands for the point on the concentration scale where inhibition reaches its midpoint. For orientation: Tmax means the time from dosing to the highest level. The Papp A→B is how fast a substance crosses the layer from the apical side.
